Data published in publication PMC12525688, “Anti-Helicobacter pylori Activity and Gastroprotective Effects of Diacetylcurcumin and Four Metal Derivatives” (Molecules, 2025).
Read-outs that look alike come from different tables or passages of the source.

Legend:
[1] = molecular target: T1, Helicobacter pylori urease (Helicobacter pylori, UniProt P69996); assay: Berthelot colorimetric urease activity assay with lysate supernatant (partially purified urease); assay type: biochemical
T1 construct: gene ureB; native urease from supernatant of sonicated H. pylori ATCC 43504; with urease subunit alpha (UreA)

E. coli DNA gyrase = molecular target: T2, E. coli DNA gyrase (Escherichia coli, UniProt P0AES4+P0AES6); assay: DNA supercoiling assay (agarose gel), […] inhibition at […]; assay type: biochemical
T2 construct: gene gyrA; DNA gyrase of the TopoGEN E. coli DNA Gyrase Drug Screening kit; with DNA gyrase subunit B (GyrB)
T2 sequence (P0AES4 2-875, one chain of several): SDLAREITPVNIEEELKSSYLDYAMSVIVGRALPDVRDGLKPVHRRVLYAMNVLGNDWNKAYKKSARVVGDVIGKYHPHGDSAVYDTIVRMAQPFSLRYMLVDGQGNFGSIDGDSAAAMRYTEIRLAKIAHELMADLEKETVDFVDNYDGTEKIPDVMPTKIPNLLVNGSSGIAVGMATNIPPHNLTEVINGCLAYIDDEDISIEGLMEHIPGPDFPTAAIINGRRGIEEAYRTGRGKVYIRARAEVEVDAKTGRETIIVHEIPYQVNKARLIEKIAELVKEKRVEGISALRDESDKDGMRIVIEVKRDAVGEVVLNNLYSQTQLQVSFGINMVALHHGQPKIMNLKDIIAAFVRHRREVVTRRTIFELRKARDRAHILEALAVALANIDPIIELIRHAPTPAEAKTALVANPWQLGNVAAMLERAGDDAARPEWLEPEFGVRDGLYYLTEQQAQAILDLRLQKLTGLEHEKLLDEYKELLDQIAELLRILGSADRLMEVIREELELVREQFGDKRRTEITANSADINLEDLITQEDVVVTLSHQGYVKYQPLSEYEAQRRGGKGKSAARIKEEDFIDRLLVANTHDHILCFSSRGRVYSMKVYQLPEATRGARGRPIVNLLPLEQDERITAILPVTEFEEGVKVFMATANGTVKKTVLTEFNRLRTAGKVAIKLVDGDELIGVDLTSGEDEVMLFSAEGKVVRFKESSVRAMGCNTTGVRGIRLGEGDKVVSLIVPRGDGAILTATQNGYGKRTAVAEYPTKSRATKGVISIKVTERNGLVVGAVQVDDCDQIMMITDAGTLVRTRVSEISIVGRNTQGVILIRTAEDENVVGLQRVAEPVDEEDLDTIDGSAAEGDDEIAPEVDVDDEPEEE

T1 sequence (P14916 whole entry): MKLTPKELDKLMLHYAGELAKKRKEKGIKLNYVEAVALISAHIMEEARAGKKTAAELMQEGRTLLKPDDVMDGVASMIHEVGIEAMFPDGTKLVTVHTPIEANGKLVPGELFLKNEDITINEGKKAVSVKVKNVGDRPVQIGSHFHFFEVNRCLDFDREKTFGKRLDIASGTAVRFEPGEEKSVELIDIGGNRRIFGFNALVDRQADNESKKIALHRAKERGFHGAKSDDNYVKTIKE
T1 sequence (P69996 whole entry): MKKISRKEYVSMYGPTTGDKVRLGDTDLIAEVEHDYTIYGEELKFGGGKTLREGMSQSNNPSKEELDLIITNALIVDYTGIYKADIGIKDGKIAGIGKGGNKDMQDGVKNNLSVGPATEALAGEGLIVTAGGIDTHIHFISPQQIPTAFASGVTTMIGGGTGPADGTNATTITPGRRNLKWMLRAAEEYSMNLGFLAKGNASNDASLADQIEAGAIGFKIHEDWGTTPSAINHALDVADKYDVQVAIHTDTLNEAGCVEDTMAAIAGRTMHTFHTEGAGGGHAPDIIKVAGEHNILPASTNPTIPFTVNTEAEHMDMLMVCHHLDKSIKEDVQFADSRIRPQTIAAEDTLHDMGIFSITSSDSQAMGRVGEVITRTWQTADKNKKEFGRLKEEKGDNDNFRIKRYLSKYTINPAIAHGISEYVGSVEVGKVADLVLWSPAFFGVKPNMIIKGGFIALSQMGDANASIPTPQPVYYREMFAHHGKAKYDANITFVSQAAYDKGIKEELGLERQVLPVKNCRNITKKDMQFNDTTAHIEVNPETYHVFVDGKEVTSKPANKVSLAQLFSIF

| SMILES | IC50 [1] [µM] | other results |
| --- | --- | --- |
| CC(=O)NO [AHA, acetohydroxamic acid] | – | IC50 ([1]; read-out: IC50): 488 µM |
| COc1cc(/C=C/C(=O)C=C(/C=C/c2ccc(OC(C)=O)c(OC)c2)[O][Cu][O]C(=CC(=O)/C=C/c2ccc(OC(C)=O)c(OC)c2)/C=C/c2ccc(OC(C)=O)c(OC)c2)ccc1OC(C)=O [DAC2-Cu] | 20.4 | – |
| COc1cc(/C=C/C(=O)C=C(/C=C/c2ccc(OC(C)=O)c(OC)c2)[O][Zn][O]C(=CC(=O)/C=C/c2ccc(OC(C)=O)c(OC)c2)/C=C/c2ccc(OC(C)=O)c(OC)c2)ccc1OC(C)=O [DAC2-Zn] | 12.4 | – |
| O=C(O)c1cn(C2CC2)c2cc(N3CCNCC3)c(F)cc2c1=O [ciprofloxacin] | – | inhibition at 3 µM (E. coli DNA gyrase): 100% |
